In patent US20220280661A1, “GLUCOCORTICOID RECEPTOR RADIOLIGANDS AND METHODS FOR THEIR PREPARATION AND USE” (The Regents of the University of California, priority 2019, published 2022):
Read-outs that look alike come from different tables or passages of the source. Values belong to the compound of their own block, whether it stands above or below them.

Legend:
GR [1] = target: T1, GR (Homo sapiens, UniProt P04150); experiment: 3H-dexamethasone displacement assay on cells (Ki); type: binding
T1 construct: evaluated using ^3H-ligand displacement assays on cells; endogenous in cells; host or cells: DU145
T1 sequence (P04150 1-777): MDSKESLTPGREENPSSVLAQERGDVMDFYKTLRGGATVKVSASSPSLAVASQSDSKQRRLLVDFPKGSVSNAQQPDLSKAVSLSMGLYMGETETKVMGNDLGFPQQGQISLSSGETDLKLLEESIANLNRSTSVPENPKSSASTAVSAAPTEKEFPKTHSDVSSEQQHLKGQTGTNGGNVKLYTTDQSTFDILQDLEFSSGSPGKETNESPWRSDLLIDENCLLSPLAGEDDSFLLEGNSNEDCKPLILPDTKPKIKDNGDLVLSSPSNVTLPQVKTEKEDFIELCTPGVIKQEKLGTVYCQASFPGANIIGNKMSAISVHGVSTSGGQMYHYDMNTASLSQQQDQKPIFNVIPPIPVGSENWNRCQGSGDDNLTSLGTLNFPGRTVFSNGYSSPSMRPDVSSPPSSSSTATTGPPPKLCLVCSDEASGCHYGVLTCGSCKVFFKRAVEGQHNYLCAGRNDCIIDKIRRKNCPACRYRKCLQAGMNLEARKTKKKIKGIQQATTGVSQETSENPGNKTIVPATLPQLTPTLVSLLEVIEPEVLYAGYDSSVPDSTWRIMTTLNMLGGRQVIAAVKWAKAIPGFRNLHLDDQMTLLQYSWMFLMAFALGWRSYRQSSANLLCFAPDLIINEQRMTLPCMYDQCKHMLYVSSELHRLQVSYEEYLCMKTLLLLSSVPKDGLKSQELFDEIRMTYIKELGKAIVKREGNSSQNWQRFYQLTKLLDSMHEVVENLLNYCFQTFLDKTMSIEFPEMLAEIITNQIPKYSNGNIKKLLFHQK
Procedure: Statistics. All statistical analysis was performed using PRISM v8.0 software. An unpaired, two-tailed Student's t test was used to determine statistically significant differences in the data. P<0.05 was reported as statistically significant. For the determination of Ki, the data were fit with a one site nonlinear regression model.
The racemic mixture of the phenol 27 was resolved using a chiral Lux® 5p Cellulose-1 stationary phase with an isocratic mobile phase of 30% water, 70% acetonitrile, and 0.1% trifluoroacetic acid (v v) (FIG. 8A). Several milligrams of one peak were isolated and the compound was recrystallized in hexanes.
The Ki were calculated using a one site Ki fit nonlinear regression with Prism v8.0. The data are representative of two independent assays.

[2] = Plasma protein binding, rapid equilibrium dialysis, human plasma; type: in vitro ADME; conditions: human, plasma, pH 7.4, human plasma
Procedure: (§1) Plasma Protein Binding Studies. The rapid equilibrium dialysis (RED) device inserts along with a Teflon base plate (Pierce, Rockford, Ill.) were used for the binding studies. The pH of the human or mouse plasma was adjusted to 7.4 prior to the experiment. DMSO stocks (1 mM) were spiked into the plasma to make a final concentration of 2 μM. The spiked plasma solutions (300 μL) were placed into the sample chamber (indicated by the red ring); and 500 μL of PBS buffer, pH 7.4, was placed into the adjacent chamber. The plate was incubated at 37° C. on an orbital shaker (250 rpm) for 4 hours.
(§2) After 4 hours, from the RED plate, aliquots (100 μL) were removed from each side of the insert (plasma and buffer) and dispensed into the 96-well plate. Subsequently, 100 μL of blank plasma was added to the buffer samples and 100 μL of blank buffer was added to all the collected plasma samples. 300 μL of quench solution (50% acetonitrile, 50% methanol, and 0.05% formic acid, warmed up at 37° C.) containing internal standards was added to each well. Plates were sealed, vortexed, and centrifuged at 4° C. for 15 minutes at 4000 rpm. The supernatant was transferred to fresh plates for LC/MS/MS analysis. The sample were analyzed on LC/MS/MS using an AB Sciex API 4000 instrument, coupled to a Shimadzu LC-20AD LC Pump system. Analytical samples were separated using a Waters Atlantis T3 dC18 reverse phase HPLC column (20 mm×2.1 mm) at a flow rate of 0.5 mL/min. The mobile phase consisted of 0.1% formic acid in water (solvent A) and 0.1% formic acid in acetonitrile (solvent B).
(§3) The percentage of test compound bound to protein was calculated by the following equations:
(§4) % Free=(Concentration in buffer chamber/Concentration in plasma chamber)×100%

plasma protein [3] = experiment: as above; type: in vitro ADME
Procedure: as §1, §2, §3, §4

[4] = Plasma protein binding, rapid equilibrium dialysis, mouse plasma; type: in vitro ADME; conditions: mouse, plasma, pH 7.4, mouse plasma
Procedure: as §1, §2, §3, §4

plasma protein [5] = experiment: as above; type: in vitro ADME
Procedure: as §1, §2, §3, §4

GR [6] = target: T2, GR (Mus musculus, UniProt P06537); experiment: 11C radiotracer biodistribution with dexamethasone or Dex-CD blocking; type: in vivo; conditions: for radiotracer uptake, Adrenal / radiotracer uptake, Blood / radiotracer uptake, Bone / radiotracer uptake, Brain / radiotracer uptake, Brown Fat / radiotracer uptake, Heart / radiotracer uptake, Kidney / radiotracer uptake, Lg. Int. / radiotracer uptake, Liver / radiotracer uptake, Lung / radiotracer uptake, Muscle / radiotracer uptake, Pancreas / radiotracer uptake, Sm. Int. / radiotracer uptake, Spleen / radiotracer uptake, Stomach: 20 min after injection
T2 construct: from tissue; host or cells: tissues of C57BL6/J mice (intact or adrenalectomized), in vivo
T2 sequence (P06537 1-792): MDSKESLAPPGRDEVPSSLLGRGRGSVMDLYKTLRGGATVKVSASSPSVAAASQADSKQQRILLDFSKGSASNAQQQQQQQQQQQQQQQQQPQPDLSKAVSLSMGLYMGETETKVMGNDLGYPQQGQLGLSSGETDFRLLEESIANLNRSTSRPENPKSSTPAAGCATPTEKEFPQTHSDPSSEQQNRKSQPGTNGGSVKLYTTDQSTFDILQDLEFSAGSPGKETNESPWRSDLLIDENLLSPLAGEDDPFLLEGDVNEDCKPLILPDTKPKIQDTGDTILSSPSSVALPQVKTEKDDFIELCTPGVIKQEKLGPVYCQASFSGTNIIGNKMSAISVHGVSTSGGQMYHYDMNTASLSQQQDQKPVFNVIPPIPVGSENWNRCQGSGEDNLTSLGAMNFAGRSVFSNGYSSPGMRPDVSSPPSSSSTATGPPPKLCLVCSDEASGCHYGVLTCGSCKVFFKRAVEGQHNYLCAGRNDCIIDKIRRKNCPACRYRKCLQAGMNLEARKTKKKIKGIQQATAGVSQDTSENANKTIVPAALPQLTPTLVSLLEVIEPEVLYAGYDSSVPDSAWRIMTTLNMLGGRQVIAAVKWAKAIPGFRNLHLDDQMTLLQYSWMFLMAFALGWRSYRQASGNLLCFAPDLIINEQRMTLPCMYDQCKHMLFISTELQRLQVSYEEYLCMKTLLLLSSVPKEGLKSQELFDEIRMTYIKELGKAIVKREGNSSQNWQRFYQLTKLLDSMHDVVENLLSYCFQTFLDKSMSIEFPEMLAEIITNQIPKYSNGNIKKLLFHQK
Procedure: Animal Studies. All animal experiments were performed under the approval of the Institutional Animal Care and Use Committee (IACUC) at UCSF. C57BL6/J mice (4-6 weeks) were purchased from Charles River. All the mice were housed in a dedicated vivarium with free access to food and water. […] Adrenalectomized mice were purchased from Charles River and provided drinking water supplemented with NaCl (aq) per instructions until the time of the tracer biodistribution study.
Biodistribution Studies. Mice were euthanized after radiotracer (7.4-18.5 MBq in 100-150 μL) injection with CO2 (g) asphyxiation and dissected at dedicated time points post injection. The blood and tissues were collected, washed, dried, and weighed. The activity of each tissue was measured with a gamma counter. All data was decay corrected. PRISM software was used to express a percentage (% ID/g) of the injected dose per gram of tissue.
The P value indicates the result of an unpaired, two-tailed Student's t test between the respective treatment group and vehicle (n=5/group).
Table 10 summarizes biodistribution data collected 20 minutes after injection of ^11C-YJH02 among two treatment arms receiving vehicle or one intraperitoneal injection of the water-soluble dexamethasone-cyclodextrin complex at 10 mg/kg one hour prior to radiotracer administration. The P value indicates the result of an unpaired, two-tailed Student's t test between the respective treatment group and vehicle (n=5/group).

[7] = DU145 cells, read-out: affinity (3H-dexamethasone displacement curves)
[8] = GR in cells, one site Ki fit, read-out: Ki
[9] = duplicate, read-out: % Bound (converted)
[10] = read-out: % Bound Average (converted)
[11] = mice given Dex-CD 10 mg/kg intraperitoneal one hour prior to radiotracer

- Ki (GR [1]; [7]): < 5 nM
- Ki (GR [1]; [8]): 3.76 nM
SMILES: COc1cccc2c1-c1ccc3c(c1[C@@H](Cc1ccc(F)cc1)O2)C(C)=CC(C)(C)N3 [(R)-YJH08]

- Ki (GR [1]; [7]): < 5 nM
- Ki (GR [1]; [8]): 2.03 nM
SMILES: COc1cccc2c1-c1ccc3c(c1[C@H](Cc1ccc(F)cc1)O2)C(C)=CC(C)(C)N3 [(S)-YJH08]

- fraction unbound at 4 h, 2 μM [2, 9]: 0.354
- fraction unbound at 4 h, 2 μM [2, 10]: 0.354
- % Bound (plasma protein [3]; human plasma, 2 μM, duplicate): 64.56%
- recovery at 4 h, 2 μM (plasma protein [3]; plasma (rapid equilibrium dialysis device), pH 7.4, human plasma): 104%
- fraction unbound at 4 h, 2 μM [4, 9]: 0.223
- fraction unbound at 4 h, 2 μM [4, 10]: 0.22
- % Bound (plasma protein [5]; mouse plasma, 2 μM, duplicate): 78.25%
- recovery at 4 h, 2 μM (plasma protein [5]; plasma (rapid equilibrium dialysis device), pH 7.4, mouse plasma): 106%
SMILES: CC(C)NCC(O)COc1cccc2ccccc12 (centres unmarked) [Propranolol]

- Ki (GR [1]; [8]): 2.35 nM
SMILES: CC1=CC(C)(C)Nc2ccc3c(c21)c(=O)oc1cccc(O)c13 [YJH01, 2,5-dihydro-10-hydroxy-5-oxo-2,2,4-trimethyl-1H-[1]benzopyrano [3,4-f]quinoline]

- Ki (GR [1]; [8]): 2.67 nM
SMILES: COc1cccc2oc(=O)c3c4c(ccc3c12)NC(C)(C)C=C4C [YJH02, 2,5-Dihydro-10-methoxy-5-oxo-2,2,4-trimethyl-1H-[1]benzopyrano [3,4-f]quinoline]

- Ki (GR [1]; [8]): 6.51 nM
SMILES: COc1cccc2c1-c1ccc3c(c1C(O)O2)C(C)=CC(C)(C)N3 (centres unmarked) [YJH03]

- Ki (GR [1]; [8]): 6.22 nM
SMILES: COc1cccc2c1-c1ccc3c(c1C(OC)O2)C(C)=CC(C)(C)N3 (centres unmarked) [YJH04, 5,10-Dimethoxy-2,5-dihydro-2,2,4-trimethyl-1H-[1]benzopyrano[3,4-f]quinolone]

- radiotracer uptake, Adrenal (GR [6]; [11]): 2.37 ± 1.0 % ID/g
- radiotracer uptake, Blood (GR [6]; [11]): 1.07 ± 0.1 % ID/g
- radiotracer uptake, Bone (GR [6]; [11]): 0.76 ± 0.1 % ID/g
- radiotracer uptake, Brain (GR [6]; [11]): 0.34 ± 0.07 % ID/g
- radiotracer uptake, Brown Fat (GR [6]; [11]): 3.64 ± 1.0 % ID/g
- radiotracer uptake, Heart (GR [6]; [11]): 0.97 ± 0.1 % ID/g
- radiotracer uptake, Kidney (GR [6]; [11]): 1.28 ± 0.1 % ID/g
- radiotracer uptake, Lg. Int. (GR [6]; [11]): 1.06 ± 0.3 % ID/g
- radiotracer uptake, Liver (GR [6]; [11]): 3.75 ± 0.8 % ID/g
- radiotracer uptake, Lung (GR [6]; [11]): 1.71 ± 0.2 % ID/g
- radiotracer uptake, Muscle (GR [6]; [11]): 0.57 ± 0.1 % ID/g
- radiotracer uptake, Pancreas (GR [6]; [11]): 1.76 ± 0.4 % ID/g
- radiotracer uptake, Sm. Int. (GR [6]; [11]): 5.80 ± 2.5 % ID/g
- radiotracer uptake, Spleen (GR [6]; [11]): 0.76 ± 0.1 % ID/g
- radiotracer uptake, Stomach (GR [6]; [11]): 1.81 ± 0.3 % ID/g
- radiotracer uptake, Adrenal (GR [6]; mice given vehicle): 6.17 ± 0.7 % ID/g
- radiotracer uptake, Blood (GR [6]; mice given vehicle): 1.24 ± 0.1 % ID/g
- radiotracer uptake, Bone (GR [6]; mice given vehicle): 0.70 ± 0.1 % ID/g
- radiotracer uptake, Brain (GR [6]; mice given vehicle): 0.66 ± 0.1 % ID/g
- radiotracer uptake, Brown Fat (GR [6]; mice given vehicle): 4.65 ± 1.1 % ID/g
- radiotracer uptake, Heart (GR [6]; mice given vehicle): 1.15 ± 0.2 % ID/g
- radiotracer uptake, Kidney (GR [6]; mice given vehicle): 1.38 ± 0.4 % ID/g
- radiotracer uptake, Lg. Int. (GR [6]; mice given vehicle): 1.63 ± 0.4 % ID/g
- radiotracer uptake, Liver (GR [6]; mice given vehicle): 6.78 ± 1.1 % ID/g
- radiotracer uptake, Lung (GR [6]; mice given vehicle): 2.07 ± 0.4 % ID/g
- radiotracer uptake, Muscle (GR [6]; mice given vehicle): 0.74 ± 0.1 % ID/g
- radiotracer uptake, Pancreas (GR [6]; mice given vehicle): 2.70 ± 0.4 % ID/g
- radiotracer uptake, Sm. Int. (GR [6]; mice given vehicle): 10.88 ± 2.7 % ID/g
- radiotracer uptake, Spleen (GR [6]; mice given vehicle): 1.55 ± 0.1 % ID/g
- radiotracer uptake, Stomach (GR [6]; mice given vehicle): 2.51 ± 0.4 % ID/g
- brain uptake relative to (±)-^11C-YJH08 (GR [6]; normal mice, 20 min post injection): approximately three fold lower
SMILES: COc1cccc2oc(=O)c3c4c(ccc3c12)NC(C)(C)C=C4C [^11C-YJH02]
